Data on five compounds can be found in article PMC10224427, “A Novel Flow Cytometry-Based Assay for the Identification of HCN4 CNBD Ligands” (Pharmaceuticals, 2023).

The target of experiment [1] is purified HCN4 C-Linker-CNBD. To be noted: cited from earlier work.
The target in experiment [2] is purified HCN4 MBP-C-Linker-CNBD fusion protein. Conditions: FP, cited from earlier work.
The target in experiment [3] is maltose-binding protein (MBP) (Escherichia coli, UniProt P0AEX9). Conditions: up to 4 µM 8-Fluo-cAMP.
For experiment [4], the target named is T1, HCN4 C-Linker-CNBD (Homo sapiens, UniProt Q9Y3Q4).
T1 construct: the passenger domain human HCN4 C-Linker-CNBD; CtxB signal peptide (N, cleaved yes); His-Tag (N); made in house; host or cells: E. coli BL21 (OmpT-deficient)
T1 sequence (Q9Y3Q4 521-723 limits assumed): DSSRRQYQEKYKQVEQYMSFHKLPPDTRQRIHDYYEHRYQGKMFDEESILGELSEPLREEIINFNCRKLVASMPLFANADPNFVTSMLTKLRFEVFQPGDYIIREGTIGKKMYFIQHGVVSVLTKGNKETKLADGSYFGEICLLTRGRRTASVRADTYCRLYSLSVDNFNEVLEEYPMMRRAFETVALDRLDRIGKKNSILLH
Briefly: Flow cytometry-based ligand-binding assay, 8-Fluo-cAMP on E. coli surface-displayed protein. For orientation: A flow cytometer gives signals particle by particle.

In experiment [5] the target is T1, HCN4 C-Linker-CNBD. The experiment can be described thus: Competitive binding assay, displacement of 8-Fluo-cAMP, flow cytometry.
The target in experiment [6] is purified HCN4 C-Linker-CNBD. Conditions: ITC; cited from earlier work.
Experiment [7] deals with purified HCN4 C-Linker-CNBD. To be noted: SPR; cited from earlier work.
Experiment [8] deals with HCN4 MBP-C-Linker-CNBD fusion protein. Further details: method as in PMID 24605759. Conditions: ITC; cited from earlier work.
Setting [9] is: ref 47, read-out: binding affinity (Kd).
[10] abbreviates: 50 nM 8-Fluo-cAMP, 100 µM competitor.

The term Kd denotes the free concentration of one partner at which half of the binding sites on the other are occupied at equilibrium, for simple one-to-one binding. In general, IC50 refers to the concentration at which inhibition is half-maximal. For orientation: Ki means a dissociation constant, usually derived from enzyme kinetics or from competition with a known ligand.

“And” between values parts separate entries of the source, which are not always exact repeats. Equal values may be shown once. “Also recorded” adds a separate entry of the source. Read-outs that look alike come from different tables or passages of the source.

`Nc1ncnc2c1nc(SCCNC(=S)Nc1ccc(-c3c4ccc(=O)cc-4oc4cc(O)ccc34)c(C(=O)O)c1)n2[C@@H]1O[C@@H]2COP(=O)(O)O[C@H]2[C@H]1O` [8-Fluo-cAMP, 8-(2-[Fluoresceinyl]aminoethylthio)adenosine-3′,5′-cyclic monophosphate]: the dissociation constant Kd in experiment [1] (ref 9, read-out: binding affinity (Kd)) is 280 nM; in experiment [1] (setting [9]), 167 nM; in experiment [2] (ref 35, read-out: binding affinity (Kd)), 189 nM; in experiment [2] (setting [9]), 111 nM; on HCN4 C-Linker-CNBD [4] (surface-displayed HCN4 C-Linker-CNBD on E. coli, 1 nM-4 µM ligand, 30 min, 30 °C, read-out: dissociation constant (Kd)), 173 ± 46 nM. In experiment [3], the “unspecific binding to surface-displayed MBP (mFI)” value was “only a marginal increase in mFI; also recorded: no unspecific binding”. For the same compound, the “concentration at which saturation of binding is attained” value on HCN4 C-Linker-CNBD [4] (mFI of cells displaying HCN4 C-Linker-CNBD) is reported as “around 500 nM”.
In the case of `NCC1(CC(=O)O)CCCCC1` [gabapentin, Gabapentin], on HCN4 C-Linker-CNBD [5] (setting [10]), the “effect on 8-Fluo-cAMP binding to the CNBD (mFI)” value (“effect on 8-Fluo-cAMP binding” below) was “no influence; also recorded: no impact”.
Consider `Nc1ncnc2c1ncn2C1OC2COP(=O)(O)OC2C1O` (stereo not drawn) [cAMP, Adenosine-3′,5′-cyclic monophosphate], for which the dissociation constant Kd was 800 nM in experiment [6] and 1500 nM in experiment [7]. For the same compound, the “effect on 8-Fluo-cAMP binding” value on HCN4 C-Linker-CNBD [5] is on record as “decreased mFI”. The IC50 on HCN4 C-Linker-CNBD [5] (IC50 for 8-Fluo-cAMP binding) was 13000 nM and 16000 nM and 23000 nM and 27000 nM. In addition, the inhibition constant (Ki) at HCN4 C-Linker-CNBD [5] (Ki determined graphically) was 11700 nM; at HCN4 C-Linker-CNBD [5] (calculated Ki), 8500 ± 2000 nM.
`COc1cc2c(cc1OC)CC(=O)N(CCCN(C)C[C@H]1Cc3cc(OC)c(OC)cc31)CC2` [ivabradine, Ivabradine]: on HCN4 C-Linker-CNBD [5] (setting [10]), the “effect on 8-Fluo-cAMP binding” value is “no impact on ligand binding; also recorded: no influence”.
For `Nc1ncnc2c1ccn2[C@@H]1O[C@@H]2COP(=O)(O)O[C@H]2[C@H]1O` [7-CH-cAMP, 7-Deazaadenosine-3,5′-cyclic monophosphate], the equilibrium dissociation constant (Kd) in experiment [8] was 30 nM. Moreover, the IC50 at HCN4 C-Linker-CNBD [5] (50 nM 8-Fluo-cAMP, read-out: IC50 for 8-Fluo-cAMP binding) stood at 230 ± 41 nM. Besides, the inhibitory constant (Ki) at HCN4 C-Linker-CNBD [5] (50 nM 8-Fluo-cAMP, read-out: inhibitory constant (Ki), calculated) was 159 ± 29 nM.
